The values that follow come from patent publication US11447504B2, “Macrocyclic chlorine substituted indole derivatives” (Bayer Aktiengesellschaft, priority 2017, dated 2022).

Structures can show the parent of a compound that is named as a salt. Where two headings read alike, the source gives them in different places.

One series relates to SK-BR-3. Description: Antiproliferation assay 7, SK-BR-3. The format is cell-based. Particulars: Homo sapiens; SK-BR-3 cells, 72 hours, CellTiter-Glo; read-out: Antiproli SK-BR-3 IC50 median. The method, then:
(§1) Assessment of the Anti-Proliferative Effect of Compounds in Different Cell Lines
(§2) The impact of compounds on the proliferation of different cell lines was assessed using the CellTiter-Glo® Luminescent Cell Viability reagent from Promega (G7573).
(§3) In parallel, cells were plated in a reference (day 0) plate for time zero determination.
(§4) Rim wells were excluded. The cells were incubated for 72 hours in a humidified incubator at 37° C. The day 0 plate was measured by adding 30 μL/well of CTG solution (CellTiter-Glo® Luminescent Cell Viability reagent, Promega G7573) to time zero wells in the reference plate followed by a 10 minutes incubation and luminescence reading at 0.1 ms. using the PHERAstar FS microplate reader (BMG Labtech).
(§5) After 72 hours incubation, the treated plates were measured in the same way as the day 0 plate mentioned above.
For orientation: Cellular ATP, detected with luciferase, serves as a proxy for viable cell number.

The test system of series [1] is SUDHL5. Description: Induction of caspase-3/7 activity (Assay 4), SUDHL5. Particulars: SUDHL5 cells. The format is cell-based. Summed up:
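DLBCL cells treated with compounds for 3 hours at 37° C. Caspase-3/7 activity measured by Caspase-Glo 3/7 luminescence, with medium-only background subtracted.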

The test system of a further series is HMC-1-8. Description: Antiproliferation assay 7, HMC-1-8. Particulars: HMC-1-8 cells, CellTiter-Glo, read-out: Antiproli HMC-1-8 IC50 median. The format is cell-based. In outline:
(§6)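 Anti-proliferative effect is determined from CellTiter-Glo signal after a 72-hour incubation at 37° C, with a time-zero reference plate measured in parallel.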

For series [2], the system named is SUDHL10. Description: Induction of cytotoxicity (Assay 6), SUDHL10.
Description: (§7) Assay 6 Induction of Cytotoxicity Upon Treatment of Cells with Selected Compounds
(§8) Therefore, cytotoxicity assays were run in parallel in SUDHL5 and SUDHL10 cells.
(§9) The different cell lines were plated in culture medium (RPMI 1640 [GIBCO #22400-089]supplemented with 10% Fetal Bovine Serum) at a density of 3,300 cells in 30 μL/well in a sterile, solid black, flat bottom, polystyrene, TC-treated 384-well microplate (Corning #3571) using Multidrop Combi Reagent Dispenser. As a control, medium without cells was also added to the plate. Cells were incubated in a humidified incubator at 37° C. overnight. […] Rim wells were excluded. The cells were incubated for 5 hours in a humidified incubator at 37° C. After this incubation, 30 μL of CellTiter-Glo® Luminescent Cell Viability reagent (Promega, G7573) was added to each well using the Multidrop Combi Reagent Dispenser, followed by 15 minutes incubation on a shaker at room temperature. Finally, luminescence was read at 0.1 ms, with a gain of 3000 using the PHERAstar FS microplate reader (BMG Labtech).
For series [3], the system named is SUDHL10. The series can be described thus: Induction of caspase-3/7 activity (Assay 4), SUDHL10. The format is cell-based. Particulars: SUDHL10 cells. Summed up:
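SUDHL10 DLBCL cells treated with compounds for 3 hours at 37 °C in a humidified incubator. Caspase-3/7 activity read with Caspase-Glo 3/7 luminescent reagent. Medium-only background subtracted from all values.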

Another series deals with MV-4-11. The series can be described thus: Antiproliferation assay 7, MV-4-11. The format is cell-based. Particulars: MV-4-11 cells, CellTiter-Glo, read-out: Antiproli MV-4-11 IC50 median. Summed up:
as §6

Series [4] deals with SUDHL5. Description: Induction of cytotoxicity (Assay 6), SUDHL5.
Description: as §7, §8, §9
In series [5] the test system is SUDHL5. The series can be described thus: Antiproliferation assay 7, SUDHL5. The format is cell-based. To be noted: SUDHL5 cells, CellTiter-Glo, read-out: Antiproli SUDHL5 IC50 (median). In outline:
as §6

The next series concerns AMO-1. The series can be described thus: Antiproliferation assay 7, AMO-1. The format is cell-based. To be noted: AMO-1 cells, CellTiter-Glo, read-out: Antiproli AMO-1 IC50 median. In outline:
as §6

Series [6] deals with T1, MCL-1 (Homo sapiens (Human), UniProt Q07820, K194A/K197A/R201A). The series can be described thus: Protein-compound interaction assay (SPR assay 8). The format is binding. To be noted: immobilized MBP-MCL-1, 25° C.; for Kd: read-out: KD (geo mean). From the text: Assay 8 Protein-Compound Interaction Assay (SPR Assay)
The ability of the compounds described in this invention to bind to MCL-1 may be determined using surface plasmon resonance (SPR). This allows for the quantification of binding in terms of the equilibrium dissociation constant (KD [M]), as well as association and dissociation rate constants (kon [1/M 1/s] and koff [1/s], respectively). The measurements may be performed using Biacore® T200 or Biacore® S200 instruments (GE Healthcare).
MBP-MCL-1 was diluted in 1×PBS-P+ (GE Healthcare) and injected on the activated chip surface. Subsequently, a solution of 1 M ethanolamine-HCl (GE Healthcare) was injected to block unreacted groups, resulting in approximately 400-2500 response units (RU) of immobilized protein. A reference surface was generated by treatment with NHS-EDC and ethanolamine-HCl.
The double-referenced sensorgrams were fit to a simple reversible Langmuir 1:1 reaction mechanism as implemented in the Biacore® T200 and S200 evaluation software (T200 evaluation software version 2.0 and S200 evaluation software version 1.0, GE Healthcare).
(In general: In SPR one partner is held on a chip, and binding of the other changes the refractive index at the surface.)

The target in series [7] is T1, MCL-1. The series can be described thus: Protein-protein interaction assay MCL-1/Noxa BH3 peptide (MCL-1 Assay, TR-FRET). The format is binding. To be noted: read-out: MCL-1 Assay IC50 (median). (TR-FRET usually uses a lanthanide donor and a delayed reading to cut background.)
Series [8] deals with SUDHL10. Description: Antiproliferation assay 7, SUDHL10. The format is cell-based. To be noted: Homo sapiens, SU-DHL10, 72 h, SUDHL10 cells, CellTiter-Glo, read-out: Antiproli SUDHL10 IC50 (median). As to the method: as §1, §2, §3, §4, §5
[9] abbreviates: Homo sapiens, SU-DHL-5, 3 h, Caspase-Glo 3/7, read-out: Caspase SUDHL5 EC50 (median).
Setting [10] is: 3 hours, Caspase-Glo 3/7, read-out: Caspase SUDHL5 EC50 (median).
Setting [11] is: read-out: Cytotox SUDHL10 IC50 (median), SUDHL10 cells, 5 hours, CellTiter-Glo.
[12] abbreviates: 3 hours, Caspase-Glo 3/7, read-out: Caspase SUDHL10 EC50 (median).
Setting [13] is: read-out: Cytotox SUDHL5 IC50 (median), SUDHL5 cells, 5 hours, CellTiter-Glo.

T1 sequence (Q07820 whole entry K194A/K197A/R201A, looked up): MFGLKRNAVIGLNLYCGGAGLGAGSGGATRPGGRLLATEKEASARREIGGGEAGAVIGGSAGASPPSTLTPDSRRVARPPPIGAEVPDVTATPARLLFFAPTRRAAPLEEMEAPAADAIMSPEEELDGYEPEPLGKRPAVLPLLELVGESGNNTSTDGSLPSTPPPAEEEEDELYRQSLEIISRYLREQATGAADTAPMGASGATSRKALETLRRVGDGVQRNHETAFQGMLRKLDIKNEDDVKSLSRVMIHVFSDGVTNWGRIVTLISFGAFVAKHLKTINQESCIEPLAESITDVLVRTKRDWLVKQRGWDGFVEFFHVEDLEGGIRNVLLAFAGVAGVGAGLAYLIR

On to `Cc1c2c(nn1C)CN(C)CCCCn1c(C(=O)O)c(CCCOc3cccc4ccccc34)c3ccc(Cl)c-2c31` (racemic) [Example 11, (rac)-4-chloro-2,3,14-trimethyl-7-[3-(naphthalen-1-yloxy)propyl]-10,11,12,13,14,15-hexahydro-2H-pyrazolo[3′,4′:8,9][1,6]diazacycloundecino[10,11,1-hi]indole-8-carboxylic Acid], for which the 50% inhibitory concentration (IC50) (as a rule, the concentration at which inhibition is half-maximal) with SK-BR-3 was 1480 nM; with HMC-1-8 (72 h), 4190 nM; in the series with SUDHL10 [2] (Homo sapiens, SU-DHL10, 5 h, read-out: Cytotox SUDHL10 IC50 (median), SUDHL10 cells, 5 hours, CellTiter-Glo) it was 370 nM; in the series on MV-4-11 (Homo sapiens, MV4-11, 72 h), 442 nM; with SUDHL5 [4] (Homo sapiens, SU-DHL-5, 5 h, read-out: Cytotox SUDHL5 IC50 (median), SUDHL5 cells, 5 hours, CellTiter-Glo), 180 nM; in the series on SUDHL5 [5] (Homo sapiens, SU-DHL-5, 72 h), 300 nM. Further, the half-maximal inhibitory concentration (IC50) with AMO-1 (Homo sapiens, AMO1, 72 h) stood at 728 nM. Further, the EC50 (usually the concentration giving half of the maximal effect) in the series on SUDHL5 [1] (setting [9]) is 140 nM; with SUDHL10 [3] (Homo sapiens, SU-DHL10, 3 h, Caspase-Glo 3/7, read-out: Caspase SUDHL10 EC50 (median)) it was 260 nM.
With `Cc1c2c(nn1C)N(C)CCCCCn1c(C(=O)O)c(CCCOc3cccc4ccccc34)c3ccc(Cl)c-2c31` (single isomer, unassigned) [Example 72, (+)-4-chloro-2,3,15-trimethyl-7-{3-[(naphthalen-1-yl)oxy]propyl}-10,11,12,13,14,15-hexahydro-2H-pyrazolo[4′,3′:4,5][1,6]diazacycloundecino[3,2,1-hi]indole-8-carboxylic acid], the 50% effective concentration (EC50) with SUDHL5 [1] (setting [10]) turned out to be 700 nM; with SUDHL10 [3] (setting [12]), 1900 nM. Further, the IC50 in the series on HMC-1-8 (72 h) is 19000 nM; in the series on SUDHL10 [2] (setting [11]) it was 1600 nM; on MCL-1 [7] it was 0.96 nM; in the series on SUDHL5 [4] (setting [13]) it was 880 nM; with SUDHL5 [5] (Homo sapiens, SU-DHL-5, 72 h), 1200 nM; with AMO-1 (72 hours) it was 1700 nM. On MCL-1 [6], the Kd (usually the concentration at which binding is half-saturated) was 11 nM. For the same molecule, the off-rate (koff) (in general, the rate constant with which the complex falls apart) at MCL-1 [6] (read-out: koff (geo mean)) was determined as 0.016 s⁻¹. Further, at MCL-1 [6] (read-out: kon (geo mean)), the kon (in general, a measure of how fast the partners come together) worked out at 1.4e+06 M⁻¹ s⁻¹.
`CCc1c2c(nn1C)COCCCCn1c(C(=O)O)c(CCCOc3cccc4ccccc34)c3ccc(Cl)c-2c31` (single isomer, unassigned; enantiomer 1) [Example 20, 4-chloro-3-ethyl-2-methyl-7-[3-(naphthalen-1-yloxy)propyl]-2,10,11,12,13,15-hexahydropyrazolo[4′,3′:9,10][1,6]oxazacycloundecino[8,7,6-hi]indole-8-carboxylic Acid (Enantiomer 1)]: the concentration for half-maximal inhibition (IC50) in the series on SK-BR-3 worked out at 2520 nM; in the series on HMC-1-8 (72 h), 2470 nM; with MV-4-11 (72 hours), 907 nM; in the series on SUDHL5 [4] (setting [13]) it was 170 nM; in the series with SUDHL10 [8] it was 450 nM; with SUDHL5 [5] (72 hours), 220 nM. Further, the IC50 with AMO-1 (Homo sapiens, AMO1, 72 h) turned out to be 874 nM. Besides, the EC50 in the series on SUDHL5 [1] (setting [10]) amounted to 140 nM.
On to `Cc1c2c(nn1C)CN(C)CCCCn1c(C(=O)O)c(CCCOc3cccc4cc(F)ccc34)c3ccc(Cl)c-2c31` (single isomer, unassigned; enantiomer 1) [Example 31, (+)-4-chloro-7-{3-[(6-fluoronaphthalen-1-yl)oxy]propyl}-2,3,14-trimethyl-10,11,12,13,14,15-hexahydro-2H-pyrazolo[3′,4′:8,9][1,6]diazacycloundecino[10,11,1-hi]indole-8-carboxylic acid-N-ethylethanamine Salt (Enantiomer 1)], for which the concentration for a half-maximal effect (EC50) at SUDHL5 [1] (setting [10]) was 55 nM; on SUDHL10 [3] (setting [12]), 65 nM. Moreover, the IC50 in the series with HMC-1-8 (72 hours) worked out at 1920 nM; in the series with SUDHL10 [2] (setting [11]), 82 nM; on MCL-1 [7], 0.71 nM; in the series with MV-4-11 (72 hours), 275 nM; in the series on SUDHL5 [4] (setting [13]), 53 nM; with SUDHL5 [5] (72 hours), 53 nM. The 50% inhibitory concentration (IC50) in the series on AMO-1 (72 hours) amounted to 174 nM. For the same molecule, on MCL-1 [6], the Kd is 0.43 nM.
Turning to `Cc1c2c(nn1CCCN1CCN(C)CC1)COCCCCn1c(C(=O)O)c(CCCOc3cccc4ccccc34)c3ccc(Cl)c-2c31` (single isomer, unassigned; enantiomer 1) [Example 49, (+)-4-chloro-3-methyl-2-[3-(4-methylpiperazin-1-yl)propyl]-7-{3-[(naphthalen-1-yl)oxy]propyl}-2,10,11,12,13,15-hexahydropyrazolo[4′,3′:9,10][1,6]oxazacycloundecino[8,7,6-hi]indole-8-carboxylic Acid (Enantiomer 1)], the 50% effective concentration (EC50) with SUDHL5 [1] (setting [10]) amounted to 520 nM; in the series on SUDHL10 [3] (setting [12]), 450 nM. In addition, the IC50 in the series on HMC-1-8 (72 hours) is 3060 nM; with SUDHL10 [2] (setting [11]), 620 nM; on MCL-1 [7], 0.75 nM; in the series with SUDHL5 [4] (setting [13]), 660 nM; in the series on SUDHL5 [5] (72 hours) it was 480 nM; in the series with AMO-1 (72 hours) it was 1340 nM. For the same molecule, the dissociation constant Kd on MCL-1 [6] came out at 1.7 nM.
For the molecule `Cc1c2c(nn1C)COCC1CC1Cn1c(C(=O)O)c(CCCOc3cccc4ccccc34)c3ccc(Cl)c-2c31` (single isomer, unassigned; stereoisomer 1) [Example 65, (9aS,10aR or 9aR, 10aS)-3-chloro-4,5-dimethyl-14-{3-[(naphthalen-1-yl)oxy]propyl}-5,7,9a, 10,10a, 11-hexahydro-9H-cyclopropa[3,4]pyrazolo[4′,3′:9,10][1,6]oxazacycloundecino-[8,7,6-hi]indole-13-carboxylic Acid—Stereoisomer 1], the EC50 in the series on SUDHL5 [1] (setting [9]) stood at 410 nM; with SUDHL10 [3] (setting [12]), 570 nM. For the same molecule, the half-maximal inhibitory concentration (IC50) with HMC-1-8 (72 hours) was determined as 7580 nM; in the series on SUDHL10 [2] (setting [11]), 400 nM; on MCL-1 [7], 0.92 nM; with SUDHL5 [4] (setting [13]), 410 nM; in the series on AMO-1 (Homo sapiens, AMO1, 72 h) it was 1420 nM. For the same molecule, the Kd at MCL-1 [6] worked out at 3.6 nM.
